# Results from PubChem BioAssay AID1033 (Sanford-Burnham Center for Chemical Genomics, 2008).
# The source made the active and inactive calls. How the calls were made is not given here.
# Biological target: Chaperone protein DnaK (Escherichia coli (strain K12)) (UniProt P0A6Y8)
# Assay: binders of DnaK substrate-binding domain, biophysical, NMR, chaperone (AID 1033)
# Details: Purified DnaK SBD, NMR ligand binding
# Sequence of Chaperone protein DnaK (Escherichia coli (strain K12)) (P0A6Y8 whole entry, looked up, the tested form may be a part): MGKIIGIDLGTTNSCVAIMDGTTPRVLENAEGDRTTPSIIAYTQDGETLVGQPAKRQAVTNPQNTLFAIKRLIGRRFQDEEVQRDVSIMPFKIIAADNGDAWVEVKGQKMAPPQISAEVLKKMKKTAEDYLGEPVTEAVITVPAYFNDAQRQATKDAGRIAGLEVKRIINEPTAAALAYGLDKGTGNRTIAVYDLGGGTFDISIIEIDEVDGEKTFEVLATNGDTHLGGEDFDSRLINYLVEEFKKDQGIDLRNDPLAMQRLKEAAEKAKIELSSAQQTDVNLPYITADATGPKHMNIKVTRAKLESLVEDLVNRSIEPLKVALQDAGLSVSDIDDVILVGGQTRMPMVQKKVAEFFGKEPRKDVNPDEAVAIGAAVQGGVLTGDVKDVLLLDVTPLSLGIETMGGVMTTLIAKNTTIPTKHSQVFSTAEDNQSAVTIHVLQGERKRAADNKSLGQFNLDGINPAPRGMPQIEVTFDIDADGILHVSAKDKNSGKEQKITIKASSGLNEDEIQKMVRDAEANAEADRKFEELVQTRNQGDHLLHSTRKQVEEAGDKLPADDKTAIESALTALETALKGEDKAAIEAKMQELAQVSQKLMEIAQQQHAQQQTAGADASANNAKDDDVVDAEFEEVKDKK
row,SMILES,Kd
1,CC(CCC(=O)O)[C@H]1CCC2C3CC[C@@H]4C[C@H](O)CC[C@]4(C)C3C[C@H](O)[C@@]21C (some centres not stated),> 4 mM (inactive)
2,O=C1c2ccc(F)cc2C(=O)N1CO,> 4 mM (inactive)
3,CC(C)=CCc1c2c(c(O)c3c(=O)c(O)c(-c4ccccc4)oc13)C=CC(C)(C)O2,> 4 mM (inactive)
4,Cc1n[nH]c(C)c1CN,> 4 mM (inactive)
5,CC(=O)c1cc(C(N)=O)c(=S)[nH]c1C,> 4 mM (inactive)
6,O=C(O)c1cccnc1N1CCCC1,> 4 mM (inactive)
7,C=CCn1c(=S)[nH]c2ccc(Br)cc2c1=O,> 4 mM (inactive)
8,COCC(=O)N1CCCc2ccccc21,> 4 mM (inactive)
9,COc1c(O)cc(O)cc1O,> 4 mM (inactive)
10,CN1CCN(C(=O)c2cc(-c3ccccc3)on2)CC1,> 4 mM (inactive)
11,COc1ccccc1NC(C)=O,> 4 mM (inactive)
12,Cc1cn2c(-c3cccnc3)nnc2s1,> 4 mM (inactive)
13,O=C(/C=C(\O)c1ccccc1)c1ccccc1O,> 4 mM (inactive)
14,Cn1c(=O)cc(O)c2ccccc21,> 4 mM (inactive)
15,O=C(c1ccc(N2CCNCC2)cc1)c1cccnc1,> 4 mM (inactive)
16,C(=N\c1ncn[nH]1)/c1cccs1,> 4 mM (inactive)
17,Cc1ccc(C(=O)N2CCC(C(N)=O)CC2)c(Cl)c1,> 4 mM (inactive)
18,NCc1ccc2occc2c1,> 4 mM (inactive)
19,Fc1ccc(Br)cc1/C=N/n1cnnc1,> 4 mM (inactive)
20,NCCNC(=S)Nc1ccccc1,> 4 mM (inactive)
21,CCOC(=O)c1csc(C2COc3ccccc3O2)n1 (configuration not stated),> 4 mM (inactive)
22,O=C(O)Cc1csc(-c2ccccc2)n1,> 4 mM (inactive)
23,COc1cccc(C(=O)N2CCOCC2)c1,> 4 mM (inactive)
24,CNC[C@@H](O)c1ccc(O)c(O)c1,> 4 mM (inactive)
25,Cc1cccc(N2C(=O)CCC2=O)n1,> 4 mM (inactive)

row,SMILES,Kd
1,Cn1cnc2c1c(=O)[nH]c(=O)n2C,> 4 mM (inactive)
2,Cc1[nH]c2ccccc2c(=O)c1CO,> 4 mM (inactive)
3,CCCS(=O)(=O)N1CCN(c2ccccn2)CC1,> 4 mM (inactive)
4,Cn1nc(C(=O)Nc2cccnc2)cc1Cl,> 4 mM (inactive)
5,COC1C(O)C(O)C(O)[C@@H](O)C1O (some centres not stated),> 4 mM (inactive)
6,O=C(O)c1ccc(NC(=O)c2cccs2)cc1,> 4 mM (inactive)
7,Cc1cc(C)n(-c2cccc3cccnc23)n1,> 4 mM (inactive)
8,Cn1c(O)c(/C=C2\C=CC=N2)c(=O)[nH]c1=O,> 4 mM (inactive)
9,O=C(O[C@@H]1Cc2c(O)cc(O)cc2O[C@@H]1c1cc(=O)c(O)c2c(O)c(O)cc([C@H]3Oc4cc(O)cc(O)c4C[C@H]3O)c2c1)c1cc(O)c(O)c(O)c1,> 4 mM (inactive)
10,COc1cccc(OC)c1C(=O)N1CCOCC1,> 4 mM (inactive)
11,CCNC(=O)CC1Nc2ccccc2NC1=O (configuration not stated),> 4 mM (inactive)
12,NC(=O)c1ccccc1NC(=O)c1cccnc1,> 4 mM (inactive)
13,S=C=NCc1ccccc1,> 4 mM (inactive)
14,COc1ccc(C)cc1S(=O)(=O)Nc1ccccc1C,> 4 mM (inactive)
15,CC(=O)C1CC[C@H]2C3CC[C@H]4C[C@H](O)CC[C@]4(C)C3CC[C@]12C (some centres not stated),> 4 mM (inactive)
16,COc1cc(OC)c(OC)cc1C=O,> 4 mM (inactive)
17,Cn1cccc1C=C1C(=O)NC(=S)NC1=O,> 4 mM (inactive)
18,Cc1nc(-c2ccc(C(=O)N3CCOCC3)cc2)cs1,> 4 mM (inactive)
19,O=C(O[C@@H]1Cc2c(O)cc(O)cc2O[C@@H]1c1cc(O)c(O)c(O)c1)c1cc(O)c(O)c(O)c1,> 4 mM (inactive)
20,COC(=O)[C@H]1[C@H]2C[C@H]3c4[nH]c5ccccc5c4CCN3C[C@H]2CC[C@@H]1O,> 4 mM (inactive)
21,COc1ccccc1NC(=O)c1cc[n+]([O-])cc1,> 4 mM (inactive)
22,O=C1NC(=O)/C(=C\c2ccncc2)S1,> 4 mM (inactive)
23,O=C(Cc1ccccc1)Nc1c[nH]c(=O)[nH]c1=O,> 4 mM (inactive)
24,CC(CC(=O)NN)C1(O)CCCCC1 (configuration not stated),> 4 mM (inactive)
25,O=C(Nc1ccc(N2CCOCC2)cc1)C1CC1,> 4 mM (inactive)

row,SMILES,Kd
1,O=C(O)C1CN(Cc2ccccc2)CCO1 (configuration not stated),> 4 mM (inactive)
2,COc1cccc2c(=O)n(CC(N)=O)ccc12,> 4 mM (inactive)
3,OCc1ccc(N2CCOCC2)nc1,> 4 mM (inactive)
4,Cc1noc(C)c1C(=O)N1CCC2(CC1)OCCO2,> 4 mM (inactive)
5,COc1ccc(-c2oc3cc(O[C@H]4O[C@H](CO)[C@@H](O)[C@H](O)[C@H]4O)c(OC)c(O)c3c(=O)c2OC)cc1O,> 4 mM (inactive)
6,c1ccc2[nH]c(-c3cscn3)nc2c1,> 4 mM (inactive)
7,NCc1n[nH]c(=O)c2ccccc12,> 4 mM (inactive)
8,O=c1[nH]c2ccccc2c(=O)n1CCCO,> 4 mM (inactive)
9,CC(=O)Nc1ccc(Nc2nnc(C)c(=O)[nH]2)cc1,> 4 mM (inactive)
10,CCOC(=O)c1cnn2ccccc12,> 4 mM (inactive)
11,c1ccc(-n2nnnc2-n2cnc3ccccc32)cc1,> 4 mM (inactive)
12,Cn1c(SCCC(=O)O)nnc1-c1cccnc1,> 4 mM (inactive)
13,COC(=O)c1cc2cc(N)ccc2s1,> 4 mM (inactive)
14,O=c1nc(C(F)(F)F)nc2ccccn12,> 4 mM (inactive)
15,O=C(CS(=O)(=O)c1ccccc1)Nc1nccs1,> 4 mM (inactive)
16,Cc1ccc(S(=O)(=O)CCc2ccccn2)cc1,> 4 mM (inactive)
17,O=[n+]1c2c(n([O-])c3ccccc31)CCCC2,> 4 mM (inactive)
18,O=C1NC(=O)C(C2SC(=O)NC2=O)S1 (configuration not stated),> 4 mM (inactive)
19,NC(=O)CN1CCCCCC1=O,> 4 mM (inactive)
20,O=c1c2ccccc2nc2n1CCS2,> 4 mM (inactive)
21,OCc1cccc2nonc12,> 4 mM (inactive)
22,CP(C)(=O)CCC(=O)O,> 4 mM (inactive)
23,O=C(Nc1ccccc1)c1cccc(N2C(=O)CCC2=O)c1,> 4 mM (inactive)
24,COC(=O)Cc1csc(N)n1,> 4 mM (inactive)
25,Cc1sc(N)c(C(N)=O)c1C,> 4 mM (inactive)

row,SMILES,Kd
1,Cc1nc2nc(Cc3ccccc3)nn2c(C)c1Cl,> 4 mM (inactive)
2,CCc1noc(C)c1C(=O)N1CCOCC1,> 4 mM (inactive)
3,Cc1onc(-c2ccccc2)c1CO,> 4 mM (inactive)
4,C/C=C(\C)C(=O)O[C@@H]1c2c(ccc3ccc(=O)oc23)OC(C)(C)[C@@H]1OC(C)=O,> 4 mM (inactive)
5,CC1=CC2C(C(C)C)CCC(C)(O)C2CC1 (configuration not stated),> 4 mM (inactive)
6,C=C1[C@H]2CC[C@@]3(C)[C@H](c4ccoc4)OC(=O)C[C@]13O[C@H]1C[C@H](O)C(C)(C)[C@H](CC(=O)OC)[C@]12C,> 4 mM (inactive)
7,COC(=O)c1cccnc1Oc1ccccc1,> 4 mM (inactive)
8,O=C(O)c1ccc(N2CCOCC2)nc1,> 4 mM (inactive)
9,O=C(Nc1cnccn1)c1cccs1,> 4 mM (inactive)
10,COC(=O)CCC(C)C1CCC2C3CCC4C[C@H](O)CC[C@]4(C)C3C[C@H](O)[C@]12C (some centres not stated),> 4 mM (inactive)
11,COc1ccc2nc(SCC(N)=O)[nH]c2c1,> 4 mM (inactive)
12,CCCOn1nnnc1-c1ccccc1,> 4 mM (inactive)
13,O=C(Nc1ccc(O)cc1)N1CCOCC1,> 4 mM (inactive)
14,Cn1cnc2c(cnn2-c2ccccc2)c1=O,> 4 mM (inactive)
15,CN1CCN(C2CCSC2)CC1 (configuration not stated),> 4 mM (inactive)
16,O=C(O)c1cccnc1N1CCOCC1,> 4 mM (inactive)
17,CNC(=S)Nc1ccc(C(=O)O)cc1,> 4 mM (inactive)
18,COc1cc2ccc(=O)oc2c(OC)c1OC,> 4 mM (inactive)
19,Cc1ccc(C(O)c2nccn2C)o1 (configuration not stated),> 4 mM (inactive)
20,O=C(NCN1CCOCC1)c1cnccn1,> 4 mM (inactive)
21,CS(=O)(=O)N1CCN(C(=O)Cc2cccs2)CC1,> 4 mM (inactive)
22,O=C1N=c2ccccc2=C1c1sc(=S)[nH]c1O,> 4 mM (inactive)
23,Cc1nc2ccccc2c(=O)[nH]1,> 4 mM (inactive)
24,N#Cc1cc2c(nc1SCc1ccncc1)CCC2,> 4 mM (inactive)
25,CCOC(=O)c1csc(C)n1,> 4 mM (inactive)

row,SMILES,Kd
1,COC(=O)c1noc(-c2ccc(OC)cc2)n1,> 4 mM (inactive)
2,Cc1cc(C)n2nc(C(=O)NCc3ccco3)nc2n1,> 4 mM (inactive)
3,O=[n+]1c(CO)c(CO)n([O-])c2ccccc21,> 4 mM (inactive)
4,Cn1c(SCC(N)=O)nc2ccccc2c1=O,> 4 mM (inactive)
5,CC(=O)/C=C\[C@@H]1[C@@]2(C)CCCC(C)(C)C2CC[C@@]1(C)O (some centres not stated),> 4 mM (inactive)
6,Nc1ccc2nccnc2c1,> 4 mM (inactive)
7,Cc1c(C(=O)N2CCOCC2)oc2c1C(=O)CC(C)(C)C2,> 4 mM (inactive)
8,c1ccc(CNc2ncnc3nc[nH]c23)nc1,> 4 mM (inactive)
9,O=C(CNC(=O)c1ccc(F)cc1)NC1=NCCS1,> 4 mM (inactive)
10,NC(=O)CSc1ccccn1,> 4 mM (inactive)
11,CN(C)C(=O)c1ccccc1-c1ccccc1,> 4 mM (inactive)
12,CCSc1nc2ccccc2[nH]1,> 4 mM (inactive)
13,C=C1C2CC[C@@]3(C)[C@H](c4ccoc4)OC(=O)C[C@]13O[C@H]1CC(=O)C(C)(C)[C@H](C(OC(C)=O)C(=O)OC)[C@@]21C (some centres not stated),> 4 mM (inactive)
14,Cc1ccc(NC(=O)CN2C(=O)CSC2=O)cc1,> 4 mM (inactive)
15,COC(=O)c1cncn1C,> 4 mM (inactive)
16,Cc1nc(-c2ccc(C(=O)O)s2)cs1,> 4 mM (inactive)
17,CC(=O)OC1CCC2(C)C3CC(=O)C4(C)C(CC5OC6(CCC(C)CO6)[C@@H](C)C54)C3CC[C@H]2C1 (some centres not stated),> 4 mM (inactive)
18,CCOC(=O)c1nc2ccccc2c(=O)n1N,> 4 mM (inactive)
19,COC(=O)c1ccc(C(=S)N2CCOCC2)cc1,> 4 mM (inactive)
20,COC(=O)C1CSCC1=O (configuration not stated),> 4 mM (inactive)
21,Nc1nnc(SCc2ccc(F)cc2Cl)s1,> 4 mM (inactive)
22,O=C1CCC(C(=O)NCc2cccnc2)N1 (configuration not stated),> 4 mM (inactive)
